Assay results: PubChem BioAssay (NCI)
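Assay format: 96-well plates, 48-hour exposure. The concentration for 50% growth inhibition is given as GI50. TGI: concentration producing complete growth inhibition.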

How the values were obtained:
Assay in all cases: NCI tumour cell line growth inhibition, 48 h
COLO 205 colon = system: COLO 205 colon
DU-145 prostate = system: DU-145 prostate
HOP-62 NSCLC = system: HOP-62 NSCLC
IGROV1 ovarian = system: IGROV1 ovarian
KM12 colon = system: KM12 colon
LOX IMVI melanoma = system: LOX IMVI melanoma
SK-MEL-5 melanoma = system: SK-MEL-5 melanoma
UACC-257 melanoma = system: UACC-257 melanoma
UACC-62 melanoma = system: UACC-62 melanoma
SNB-75 CNS = system: SNB-75 CNS

Row | SMILES | TGI (COLO 205 colon) | TGI (DU-145 prostate) | TGI (HOP-62 NSCLC) | TGI (IGROV1 ovarian) | TGI (KM12 colon) | TGI (LOX IMVI melanoma) | TGI (SK-MEL-5 melanoma) | TGI (UACC-257 melanoma) | TGI (UACC-62 melanoma) | TGI (SNB-75 CNS) | GI50 (COLO 205 colon) | GI50 (IGROV1 ovarian) | GI50 (KM12 colon) | GI50 (LOX IMVI melanoma) | GI50 (SK-MEL-5 melanoma) | GI50 (SNB-75 CNS) | GI50 (UACC-257 melanoma) | GI50 (UACC-62 melanoma) | GI50 (HOP-62 NSCLC)
1 | COc1c(O)c(OC)c2oc(-c3ccc(O)cc3)c(OC)c(=O)c2c1O | > 100 µM | > 100 µM | 94.9 µM | 51.4 µM | > 100 µM | > 100 µM | > 100 µM | > 100 µM | > 100 µM |  |  |  |  |  |  |  |  |  | 
2 | CC1(O)CCn2c(=O)c3cc4ccccc4cc3c(=O)n2C1O (stereo not drawn) | > 100 µM |  | > 100 µM | > 100 µM | > 100 µM | > 100 µM | > 100 µM | > 100 µM | > 100 µM |  |  |  |  |  |  |  |  |  | 
3 | CCCCCCC(C)CCCCCCCCCCC(=O)O (stereo not drawn) | > 100 µM |  | > 100 µM | > 100 µM | > 100 µM | > 100 µM | > 100 µM | > 100 µM | > 100 µM | > 100 µM |  |  |  |  |  |  |  |  | 
4 | CCOC(OC1=C(C#N)CCCC1)C(CC)[Se]c1ccccc1 (stereo not drawn) | 40.6 µM |  | > 100 µM | 74.1 µM | > 100 µM | 21.9 µM | 33.5 µM | > 100 µM | 48 µM | 80.7 µM |  |  |  |  |  |  |  |  | 
5 | COC(=O)C1C(=O)N(CCc2c[nH]c3ccccc23)C[C@@H]2CCC(=O)C[C@H]12 (stereo partly drawn) | > 100 µM |  | > 100 µM | > 100 µM | > 100 µM | > 100 µM | > 100 µM | > 100 µM | > 100 µM | > 100 µM |  |  |  |  |  |  |  |  | 
6 | Cn1c(=O)nc2n(-c3ccc(Cl)c(C(F)(F)F)c3)c3ccccc3nc-2c1=O | 49.9 µM |  | > 100 µM | > 100 µM | > 100 µM | > 100 µM | 26.9 µM | 36.8 µM | 35.4 µM | > 100 µM |  |  |  |  |  |  |  |  | 
7 | Cc1ccc(C)c(N2C(=O)C(=O)C(c3nc4ccccc4s3)C(=Nc3cccc4c(=O)[nH][nH]c(=O)c34)C2=O)c1 (stereo not drawn) | > 100 µM |  | > 100 µM | > 100 µM | > 100 µM | > 100 µM | > 100 µM | > 100 µM | > 100 µM | > 100 µM |  |  |  |  |  |  |  |  | 
8 | Cc1nc(-c2cccnc2)sc1C(=O)/C=C/c1cccc([N+](=O)[O-])c1 | > 100 µM |  | > 100 µM | > 100 µM | > 100 µM | > 100 µM | > 100 µM | > 100 µM | > 100 µM | > 100 µM |  |  |  |  |  |  |  |  | 
9 | N.N.N.N.N.O=S(=O)([O-])S(=O)(=O)[O-].[Co+3] | > 100 µM |  |  | > 100 µM | > 100 µM | > 100 µM | > 100 µM | > 100 µM | > 100 µM | > 100 µM | > 100 µM | > 100 µM | > 100 µM | > 100 µM | > 100 µM | 62.8 µM | > 100 µM | > 100 µM | 
10 | CSc1ccc(N(C)c2nc(C)nc3c2CCC3)cc1 | < 0.01 µM |  | 21.3 µM | > 100 µM | 12.9 µM | 13.7 µM |  | 48.4 µM | 25 µM | 42.1 µM | < 0.01 µM | < 0.01 µM | < 0.01 µM | < 0.01 µM |  | < 0.01 µM | 11.6 µM | < 0.01 µM | < 0.01 µM
